# Assay results as given in patent US12281102B2, “Inhibitors of APOL1 and methods of using same” (Vertex Pharmaceuticals Incorporated, priority 2020, dated 2025).
# Biological target: T1, G1 APOL1 (Homo sapiens, UniProt O14791, I384M/S342G)
# T1 construct: expressed in transfected cells
# T1 sequence (O14791 28-398 S342G/I384M): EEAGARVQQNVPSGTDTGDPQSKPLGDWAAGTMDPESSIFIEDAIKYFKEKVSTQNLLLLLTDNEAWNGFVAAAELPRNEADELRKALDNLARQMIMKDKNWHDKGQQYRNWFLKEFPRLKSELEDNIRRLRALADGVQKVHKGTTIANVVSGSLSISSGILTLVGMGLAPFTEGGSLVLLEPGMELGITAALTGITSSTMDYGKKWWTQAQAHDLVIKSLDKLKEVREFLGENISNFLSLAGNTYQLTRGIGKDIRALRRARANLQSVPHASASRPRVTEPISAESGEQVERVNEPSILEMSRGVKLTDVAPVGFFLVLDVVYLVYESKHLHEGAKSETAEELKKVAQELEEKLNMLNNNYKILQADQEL
# Assay: Acute APOL1 Thallium Assay with inducible stable clones of HEK 293 cells
# Type: cell-based
# Conditions: HEK 293 T-Rex inducible stable clone expressing G1 APOL1; read-out: Thallium Assay (IC50)
# How it was run: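 A tetracycline-inducible HEK293 T-Rex clone (G1 DC3.25) expressing G1 APOL1 was plated at 26,000 cells/well, with tetracycline added at plating to induce expression. Cells were loaded with an AM-ester thallium-sensitive dye and stimulated with Tl+. Pore activity was read as the FLIPR Tetra fluorescence increase from Tl+ influx.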
row,Structure (SMILES),IC50 [µM]
1,O=C(CC1CCOCC1)N[C@H]1C[C@H](c2c(-c3ccc(F)cc3)[nH]c3c(F)cc(F)cc32)C1 [Compound 100],> 1
2,O=C(CC1CS(=O)(=O)C1)N[C@H]1C[C@H](c2c(-c3ccc(F)cc3)[nH]c3c(F)cc(F)cc32)C1 [Compound 101],> 1
3,CN(CC(=O)N[C@H]1C[C@H](c2c(-c3ccc(F)cc3)[nH]c3c(F)cc(F)cc32)C1)S(C)(=O)=O [Compound 103],> 1
4,CN1CCCC(CC(=O)N[C@H]2C[C@H](c3c(-c4ccc(F)cc4)[nH]c4c(F)cc(F)cc43)C2)C1 (stereo partly drawn) [Compound 104],> 1
5,Cn1ccc(CC(=O)N[C@H]2C[C@H](c3c(-c4ccc(F)cc4)[nH]c4c(F)cc(F)cc43)C2)n1 [Compound 106],0.25 to 1
6,CS(=O)(=O)NCC(=O)N[C@H]1C[C@H](c2c(-c3ccc(F)cc3)[nH]c3c(F)cc(F)cc32)C1 [Compound 107],> 1
7,CCS(=O)(=O)NCC(=O)N[C@H]1C[C@H](c2c(-c3ccc(F)cc3)[nH]c3c(F)cc(F)cc32)C1 [Compound 108],> 1
8,O=C(CCN1CCCC1)N[C@H]1C[C@H](c2c(-c3ccc(F)cc3)[nH]c3c(F)cc(F)cc32)C1 [Compound 109],> 1
9,CN1CCC(CC(=O)N[C@H]2C[C@H](c3c(-c4ccc(F)cc4)[nH]c4c(F)cc(F)cc43)C2)C1 (stereo partly drawn) [Compound 110],> 1
10,O=C(CN1CCCC1)N[C@H]1C[C@H](c2c(-c3ccc(F)cc3)[nH]c3c(F)cc(F)cc32)C1 [Compound 112],> 1
11,O=C(CC1(O)CCCCC1)N[C@H]1C[C@H](c2c(-c3ccc(F)cc3)[nH]c3c(F)cc(F)cc32)C1 [Compound 113],> 1
12,O=C(CCN1CCCC1=O)N[C@H]1C[C@H](c2c(-c3ccc(F)cc3)[nH]c3c(F)cc(F)cc32)C1 [Compound 114],> 1
13,Cn1nccc1CC(=O)N[C@H]1C[C@H](c2c(-c3ccc(F)cc3)[nH]c3c(F)cc(F)cc32)C1 [Compound 115],> 1
14,NS(=O)(=O)CCC(=O)N[C@H]1C[C@H](c2c(-c3ccc(F)cc3)[nH]c3c(F)cc(F)cc32)C1 [Compound 116],0.25 to 1
15,CN1CCC(CC(=O)N[C@H]2C[C@H](c3c(-c4ccc(F)cc4)[nH]c4c(F)cc(F)cc43)C2)CC1 [Compound 117],> 1
16,O=C(CC1CCCOC1)N[C@H]1C[C@H](c2c(-c3ccc(F)cc3)[nH]c3c(F)cc(F)cc32)C1 (stereo partly drawn) [Compound 118],> 1
17,CS(=O)(=O)CCC(=O)N[C@H]1C[C@H](c2c(-c3ccc(F)cc3)[nH]c3c(F)cc(F)cc32)C1 [Compound 119],> 1
18,O=C(CC(=O)N1CCOCC1)N[C@H]1C[C@H](c2c(-c3ccc(F)cc3)[nH]c3c(F)cc(F)cc32)C1 [Compound 120],> 1
19,O=C(CN1CCOCC1)N[C@H]1C[C@H](c2c(-c3ccc(F)cc3)[nH]c3c(F)cc(F)cc32)C1 [Compound 121],> 1

row,Structure (SMILES),IC50 [µM]
1,CN(C)CCC(=O)N[C@H]1C[C@H](c2c(-c3ccc(F)cc3)[nH]c3c(F)cc(F)cc32)C1 [Compound 122],> 1
2,CN(C)C(=O)CCC(=O)N[C@H]1C[C@H](c2c(-c3ccc(F)cc3)[nH]c3c(F)cc(F)cc32)C1 [Compound 123],0.25 to 1
3,O=C(CCN1CCCCC1)N[C@H]1C[C@H](c2c(-c3ccc(F)cc3)[nH]c3c(F)cc(F)cc32)C1 [Compound 124],> 1
4,COCCC(=O)N[C@H]1C[C@H](c2c(-c3ccc(F)cc3)[nH]c3c(F)cc(F)cc32)C1 [Compound 125],< 0.25
5,Cc1nccn1CC(=O)N[C@H]1C[C@H](c2c(-c3ccc(F)cc3)[nH]c3c(F)cc(F)cc32)C1 [Compound 126],> 1
6,CC1(C)CCC(C(=O)N[C@H]2C[C@H](c3c(-c4ccc(F)cc4)[nH]c4c(F)cc(F)cc43)C2)N1 (stereo partly drawn) [Compound 127],> 1
7,O=C1CC(C(=O)N[C@H]2C[C@H](c3c(-c4ccc(F)cc4)[nH]c4c(F)cc(F)cc43)C2)C(=O)N1 (stereo partly drawn) [Compound 128],< 0.25
8,N#CCC(=O)N[C@H]1C[C@H](c2c(-c3ccc(F)cc3)[nH]c3c(F)cc(F)cc32)C1 [Compound 129],< 0.25
9,CC(F)(F)C(=O)N[C@H]1C[C@H](c2c(-c3ccc(F)cc3)[nH]c3c(F)cc(F)cc32)C1 [Compound 130],0.25 to 1
10,O=C(N[C@H]1C[C@H](c2c(-c3ccc(F)cc3)[nH]c3c(F)cc(F)cc32)C1)C1COC1 [Compound 131],0.25 to 1
11,O=C1CC(CC(=O)N[C@H]2C[C@H](c3c(-c4ccc(F)cc4)[nH]c4c(F)cc(F)cc43)C2)CC(=O)N1 [Compound 132],> 1
12,CC(C)(O)C(=O)N[C@H]1C[C@H](c2c(-c3ccc(F)cc3)[nH]c3c(F)cc(F)cc32)C1 [Compound 133],< 0.25
13,CNCCC(=O)N[C@H]1C[C@H](c2c(-c3ccc(F)cc3)[nH]c3c(F)cc(F)cc32)C1 [Compound 134],0.25 to 1
14,O=C(N[C@H]1C[C@H](c2c(-c3ccc(F)cc3)[nH]c3c(F)cc(F)cc32)C1)C1(O)CC1 [Compound 135],< 0.25
15,O=C(CO)N[C@H]1C[C@H](c2c(-c3ccc(F)cc3)[nH]c3c(F)cc(F)cc32)C1 [Compound 136],< 0.25
16,O=C(CC1COC1)N[C@H]1C[C@H](c2c(-c3ccc(F)cc3)[nH]c3c(F)cc(F)cc32)C1 [Compound 138],> 1
17,O=C(Cn1cnnc1)N[C@H]1C[C@H](c2c(-c3ccc(F)cc3)[nH]c3c(F)cc(F)cc32)C1 [Compound 139],> 1
18,O=C1CC(C(=O)N[C@H]2C[C@H](c3c(-c4ccc(F)cc4)[nH]c4c(F)cc(F)cc43)C2)CN1 (stereo partly drawn) [Compound 140],> 1
19,CNC1(C(=O)N[C@H]2C[C@H](c3c(-c4ccc(F)cc4)[nH]c4c(F)cc(F)cc43)C2)CC1 [Compound 141],0.25 to 1

row,Structure (SMILES),IC50 [µM]
1,O=C(N[C@H]1C[C@H](c2c(-c3ccc(F)cc3)[nH]c3c(F)cc(F)cc32)C1)C1(CO)CC1 [Compound 142],< 0.25
2,Cn1cnc(CC(=O)N[C@H]2C[C@H](c3c(-c4ccc(F)cc4)[nH]c4c(F)cc(F)cc43)C2)c1 [Compound 143],0.25 to 1
3,O=C(N[C@H]1C[C@H](c2c(-c3ccc(F)cc3)[nH]c3c(F)cc(F)cc32)C1)C(F)F [Compound 144],< 0.25
4,"O=S(=O)(N[C@H]1C[C@H](c2c(-c3ccc(F)cc3)[nH]c3c(F)cc(F)cc32)C1)c1cn[nH]c1 [Compound 145, N-[(1r,3r)-3-[5,7-difluoro-2-(4-fluorophenyl)-1H-indol-3-yl]cyclobutyl]-1H-pyrazole-4-sulfonamide]",0.25 to 1
5,O=S(=O)(CCO)N[C@H]1C[C@H](c2c(-c3ccc(F)cc3)[nH]c3c(F)cc(F)cc32)C1 [Compound 146],< 0.25
6,CCS(=O)(=O)N[C@H]1C[C@H](c2c(-c3ccc(F)cc3)[nH]c3c(F)cc(F)cc32)C1 [Compound 147],< 0.25
7,Cn1ccnc1S(=O)(=O)N[C@H]1C[C@H](c2c(-c3ccc(F)cc3)[nH]c3c(F)cc(F)cc32)C1 [Compound 148],> 1
8,CC(C)S(=O)(=O)N[C@H]1C[C@H](c2c(-c3ccc(F)cc3)[nH]c3c(F)cc(F)cc32)C1 [Compound 149],0.25 to 1
9,O=S(=O)(N[C@H]1C[C@H](c2c(-c3ccc(F)cc3)[nH]c3c(F)cc(F)cc32)C1)c1c[nH]cn1 [Compound 150],0.25 to 1
10,O=C1NC(=O)C(CCS(=O)(=O)N[C@H]2C[C@H](c3c(-c4ccc(F)cc4)[nH]c4c(F)cc(F)cc43)C2)N1 (stereo partly drawn) [Compound 151],0.25 to 1
11,CCC(C)S(=O)(=O)N[C@H]1C[C@H](c2c(-c3ccc(F)cc3)[nH]c3c(F)cc(F)cc32)C1 (stereo partly drawn) [Compound 152],> 1
12,O=c1[nH]c2ccc(S(=O)(=O)N[C@H]3C[C@H](c4c(-c5ccc(F)cc5)[nH]c5c(F)cc(F)cc54)C3)cc2[nH]1 [Compound 153],> 1
13,O=S(=O)(N[C@H]1C[C@H](c2c(-c3ccc(F)cc3)[nH]c3c(F)cc(F)cc32)C1)c1n[nH]c2ncccc12 [Compound 154],> 1
14,O=c1ccc2cc(S(=O)(=O)N[C@H]3C[C@H](c4c(-c5ccc(F)cc5)[nH]c5c(F)cc(F)cc54)C3)ccc2[nH]1 [Compound 155],> 1
15,O=S(=O)(N[C@H]1C[C@H](c2c(-c3ccc(F)cc3)[nH]c3c(F)cc(F)cc32)C1)C1CCOCC1 [Compound 156],> 1
16,"N[C@H]1C[C@H](Cc2c(-c3ccc(F)cc3)[nH]c3c(F)cc(F)cc23)C1 [Compound 157, trans-3-[[5,7-difluoro-2-(4-fluorophenyl)-1H-indol-3-yl]methyl]cyclobutanamine]",< 0.25
17,"N[C@H]1C[C@@H](Cc2c(-c3ccc(F)cc3)[nH]c3c(F)cc(F)cc23)C1 [Compound 158, cis-3-[[5,7-difluoro-2-(4-fluorophenyl)-1H-indol-3-yl]methyl]cyclobutanamine]",< 0.25
18,"O=C(N[C@H]1C[C@H](Cc2c(-c3ccc(F)cc3)[nH]c3c(F)cc(F)cc23)C1)C1(CO)CC1 [Compound 159, N-[3-[[5,7-difluoro-2-(4-fluorophenyl)-1H-indol-3-yl]methyl]cyclobutyl]-1-(hydroxymethyl)cyclopropanecarboxamide]",> 1

# Same assay, conditions: Thallium Assay (IC50), HEK 293 T-Rex inducible stable clone expressing G1 APOL1
row,Structure (SMILES),IC50 [µM]
1,NCC(=O)N[C@H]1C[C@H](c2c(-c3ccc(F)cc3)[nH]c3c(F)cc(F)cc32)C1 [Compound 137],< 0.25
